In US9849130B2 (KamTek, Inc., priority 2014, dated 2017):
Converted amounts (≈) assume the structure as drawn. “And” between values parts separate entries of the source, which are not always exact repeats. Equal values may be shown once. Read-outs that look alike come from different tables or passages of the source.

Columns and labels:
Fusobacterium = assay: MIC by microdilution in Brucella broth against Fusobacterium; type: cell-based, Fusobacterium spp.
C. difficile = assay: Minimum bactericidal concentration (MBC) against C. difficile; type: cell-based, Clostridium difficile; details: for MBC: Clostridioides difficile
CD = assay: Animal model testing of CDI (Syrian Golden Hamster model), survival; type: in vivo
[1] = cited from earlier work
[2] = cited from earlier work; remark: listed apart in the source
[3] = in vivo; cited from earlier work
[4] = CFM formulations suitable for in vivo dosing (Table 18)
CD strain VPI 1063 = assay: MIC of CFM formulations following incubation with feces (supernatants); type: cell-based, Clostridium difficile; details: for MIC: Clostridioides difficile
[5] = F. nucleatum HM-75, Brucella broth
[6] = F. nucleatum HM-260, Brucella broth
[7] = F. nucleatum HM-992, Brucella broth
[8] = F. nucleatum HM-993, Brucella broth
[9] = F. nucleatum HM-994, Brucella broth
[10] = F. nucleatum HM-995, Brucella broth
[11] = F. nucleatum HM-996, Brucella broth
[12] = F. nucleatum HM-997, Brucella broth
[13] = Fusobacterium sp. HM 42, Brucella broth
[14] = Fusobacterium sp. HM 57, Brucella broth
[15] = Fusobacterium sp. HM-556, Brucella broth
[16] = Fusobacterium sp. HM-758, Brucella broth
[17] = Fusobacterium sp. HM-871, Brucella broth
[18] = Fusobacterium sp. HM-874, Brucella broth
[19] = Fusobacterium sp. HM-875, Brucella broth
[20] = F. nucleatum HM-75, Brucella broth, read-out: MIC
[21] = F. nucleatum HM-993, Brucella broth, read-out: MIC
[22] = F. nucleatum HM-996, Brucella broth, read-out: MIC
[23] = F. nucleatum HM-997, Brucella broth, read-out: MIC
[24] = Fusobacterium, Fusobacterium sp. HM 57, Brucella broth, read-out: MIC

CCN=c1cc2n(-c3ccc(Cl)cc3)c3ccccc3nc-2cc1Nc1ccc(Cl)cc1 [B746]
MIC (Fusobacterium; [5]): 16 µg/mL (≈ 34.8 µM) | MIC (Fusobacterium; [6]): >32 µg/mL | MIC (Fusobacterium; [7]): 16 µg/mL (≈ 34.8 µM) | MIC (Fusobacterium; [8]): 2 µg/mL (≈ 4.35 µM) | MIC (Fusobacterium; [9]): 8 µg/mL (≈ 17.4 µM) | MIC (Fusobacterium; [10]): 16 µg/mL (≈ 34.8 µM) | MIC (Fusobacterium; [11]): 32 µg/mL (≈ 69.7 µM) | MIC (Fusobacterium; [12]): 16 µg/mL (≈ 34.8 µM) | MIC (Fusobacterium; [13]): >32 µg/mL | MIC (Fusobacterium; [14]): >32 µg/mL | MIC (Fusobacterium; [15]): 8 µg/mL (≈ 17.4 µM) | MIC (Fusobacterium; [16]): >32 µg/mL | MIC (Fusobacterium; [17]): 8 µg/mL (≈ 17.4 µM) | MIC (Fusobacterium; [18]): 16 µg/mL (≈ 34.8 µM) | MIC (Fusobacterium; [19]): 8 µg/mL (≈ 17.4 µM)

CCN=c1cc2n(-c3cccc(C(F)(F)F)c3)c3ccccc3nc-2cc1Nc1cccc(C(F)(F)F)c1 [B4129]
MIC (Fusobacterium; [5]): >32 µg/mL | MIC (Fusobacterium; [6]): >32 µg/mL | MIC (Fusobacterium; [7]): >32 µg/mL | MIC (Fusobacterium; [8]): 8 µg/mL (≈ 15.2 µM) | MIC (Fusobacterium; [9]): >32 µg/mL | MIC (Fusobacterium; [10]): >32 µg/mL | MIC (Fusobacterium; [11]): >32 µg/mL | MIC (Fusobacterium; [12]): >32 µg/mL | MIC (Fusobacterium; [13]): >32 µg/mL | MIC (Fusobacterium; [14]): >32 µg/mL | MIC (Fusobacterium; [15]): >32 µg/mL | MIC (Fusobacterium; [16]): >32 µg/mL | MIC (Fusobacterium; [17]): >32 µg/mL | MIC (Fusobacterium; [18]): >32 µg/mL | MIC (Fusobacterium; [19]): >32 µg/mL

CC(C)N=c1cc2n(-c3ccc(Cl)cc3)c3ccccc3nc-2cc1Nc1ccc(Cl)cc1 [CFM, 3-(p-chloroanilino)-10-(p-chlorophenyl)-2,10-dihydro-2-iso-propyliminophenazine]
MBC/MIC (C. difficile): 2 and 1 | MBC/MIC ratio range (C. difficile): 1-2 | MBC/MIC (C. difficile; CD isolate BAA1805 (hyper-virulent strain BI/NAP1/027)): 1 | MBC (C. difficile; BAA1805): 0.125 µg/mL (≈ 0.264 µM) | MBC (C. difficile; CD isolate NR13430, read-out: MBC): 0.25 µg/mL (≈ 0.528 µM) | MBC (C. difficile; CD isolate NR13432, read-out: MBC): 0.25 µg/mL (≈ 0.528 µM) | MBC (C. difficile; CD isolate NR13437, read-out: MBC): 0.25 µg/mL (≈ 0.528 µM) | MBC (C. difficile; CD isolate NR32882, read-out: MBC): 0.5 µg/mL (≈ 1.06 µM) | MBC (C. difficile; CD isolate NR32883, read-out: MBC): 0.5 µg/mL (≈ 1.06 µM) | MBC (C. difficile; CD isolate NR332884, read-out: MBC): 0.25 µg/mL (≈ 0.528 µM) | MBC (C. difficile; CD isolate VPI10463, read-out: MBC): 0.25 µg/mL (≈ 0.528 µM) | MIC (Fusobacterium; [20]): > 32 µg/mL | MIC (Fusobacterium; F. nucleatum HM-260, Brucella broth, read-out: MIC): > 32 µg/mL | MIC (Fusobacterium; F. nucleatum HM-992, Brucella broth, read-out: MIC): > 32 µg/mL | MIC (Fusobacterium; [21]): 2 µg/mL (≈ 4.22 µM) | MIC (Fusobacterium; F. nucleatum HM-994, Brucella broth, read-out: MIC): 32 µg/mL (≈ 67.6 µM) | MIC (Fusobacterium; F. nucleatum HM-995, Brucella broth, read-out: MIC): > 32 µg/mL | MIC (Fusobacterium; [22]): 32 µg/mL (≈ 67.6 µM) | MIC (Fusobacterium; [23]): > 32 µg/mL | MIC (Fusobacterium; Fusobacterium, Fusobacterium sp. HM 42, Brucella broth, read-out: MIC): > 32 µg/mL | MIC (Fusobacterium; [24]): > 32 µg/mL | MIC (Fusobacterium; Fusobacterium, Fusobacterium sp. HM-556, Brucella broth, read-out: MIC): 16 µg/mL (≈ 33.8 µM) | MIC (Fusobacterium; Fusobacterium, Fusobacterium sp. HM-758, Brucella broth, read-out: MIC): > 32 µg/mL | MIC (Fusobacterium; Fusobacterium, Fusobacterium sp. HM-871, Brucella broth, read-out: MIC): 32 µg/mL (≈ 67.6 µM) | MIC (Fusobacterium; Fusobacterium, Fusobacterium sp. HM-874, Brucella broth, read-out: MIC): > 32 µg/mL | MIC (Fusobacterium; Fusobacterium, Fusobacterium sp. HM-875, Brucella broth, read-out: MIC): 32 µg/mL (≈ 67.6 µM) | protection at higher dosages (CD; 20 and 40 mg/kg versus 10 mg/kg): did not increase the protection | protection during 28 days of observation (CD; CFM dosage of 10 mg/kg): 30% | survival for 27 days (CD; CFM in aqueous suspension of CMC at 10 mg/kg/once a day): 30% | protection on animal survival by day 9 after infection (CD; CFM in aqueous suspension of CMC, oral, 10 mg/kg/day, 5 days): 50% | survival by day 7 (CD; drug alone at the same dosage as in the combination (Lamprene 10 mg/kg twice a day)): 0% | solubility in water [1]: 0.225 µg/mL (≈ 0.475 µM) | half-life ([2]; after a single dose of 100 mg): about 10 days | half-life ([2]; following long-term high dosage of 300 mg): about 70 days | orally absorbed bioavailability ([2]; in vivo, po): 45-65% | gastrointestinal conditions including abdominal and epigastric pain, nausea, vomiting and/or diarrhea [3]: 40-50 % of patients | icothyosis and dryness of skin [3]: 8-28 % of patients | ocular conditions including conjunctival pigmentation, itching and dryness [3]: approximately 1 % of patients | rash and pruritus [3]: 1-5 % of patients | skin pigmentation [3]: 75-100 % of patients | solubility ([4]; Cremophor-EL (100%, liquid), organic solvent or mixture, in Cremophor-EL, liquid, 100%): 8000 µg/mL (≈ 16900 µM) | solubility ([4]; Cremophor-EL (100%, liquid), organic solvent or mixture, in Cremophor-EL, liquid, 100%, if kept for long time (3-5 days)): 10000 µg/mL (≈ 21100 µM) | solubility ([4]; Phosal 50 PG (phospholipids), oil or lipid, in Phosal 50 PG (phospholipids), thick oily liquid): 10000 µg/mL (≈ 21100 µM) | solubility ([4]; Phosal 53 MCT (phospholipids), oil or lipid, in Phosal 53 MCT (phospholipids), thick oily liquid): 10000 µg/mL (≈ 21100 µM) | solubility ([4]; Tween 80 (100%, liquid), organic solvent or mixture, in Tween 80, liquid, 100%): 12000 µg/mL (≈ 25300 µM) | solubility ([4]; Tween 80 (100%, liquid), organic solvent or mixture, in Tween 80, liquid, 100%, if kept for long time (3-5 days)): 15000 µg/mL (≈ 31700 µM) | Stability ([4]; in Cremophor-EL, liquid, 100%, remains stable following dilution in water/medium/saline/PBS): Stable, and remains | Stability ([4]; in Olive oil, canola oil, and coconut oil, diluted only in oils, forms emulsions in water): Stable, should be | Stability ([4]; in Phosal 50 PG (phospholipids), forms emulsion in water): Stable, clear, thick | Stability ([4]; in Phosal 53 MCT (phospholipids), forms emulsion in water): Stable, clear, thick | Stability ([4]; in Tween 80, liquid, 100%, stable after dilution in water or culture medium, PBS, precipitates slowly in saline): Stable undiluted, | solubility ([4]; olive oil, canola oil, and coconut oil (100%, liquid), oil or lipid, in Olive oil, canola oil, and coconut oil, liquid, 100%): 5000 µg/mL (≈ 10600 µM) | solubility ([4]; polyethylene glycol (PEG-300, PEG-400), 100%, liquid, organic solvent or mixture, in Polyethylene glycol (PEG-300, PEG-400)): 5000 µg/mL (≈ 10600 µM)

Cc1ncc([N+](=O)[O-])n1CCO [MET, metronidazole]
MBC (C. difficile; CD strain VPI 10463, BHI, Table 19 formulations, read-out: MBC): 0.25 µg/mL (≈ 1.46 µM) | MIC (Fusobacterium; [20]): 0.062 µg/mL (≈ 0.362 µM) | MIC (Fusobacterium; [21]): ≤ 0.031 µg/mL | MIC (Fusobacterium; [22]): 0.5 µg/mL (≈ 2.92 µM) | MIC (Fusobacterium; [23]): 0.25 µg/mL (≈ 1.46 µM) | MIC (Fusobacterium; [24]): 0.5 µg/mL (≈ 2.92 µM) | MIC (Fusobacterium; Fusobacterium, Fusobacterium spp. strains of Table 12 (all strains), read-out: MIC): 0.031 to 0.5 µg/mL (≈ 0.181 to 2.92 µM) | MIC in Fecal extracts (CD strain VPI 1063; 128 μg/ml in 20% feces, 2 hours at 37° C., centrifuged, supernatants filter sterilized and tested, CD strain VPI 1063): >32 µg/mL | MIC (CD strain VPI 1063; VPI1063, 128 μg/ml in 20% feces, 2 hours at 37° C., centrifuged, supernatants filter sterilized and tested, CD strain VPI 1063, read-out: MIC in Fecal extracts): > 32 µg/mL | MIC (CD strain VPI 1063; VPI1063, serial dilutions in BHI, without centrifugation, CD strain VPI 1063, read-out: MIC in BHI control): 0.062 µg/mL

CN[C@H](CC(C)C)C(=O)N[C@H]1C(=O)N[C@@H](CC(N)=O)C(=O)N[C@H]2C(=O)N[C@H]3C(=O)N[C@H](C(=O)N[C@H](C(=O)O)c4cc(O)cc(O)c4-c4cc3ccc4O)[C@H](O)c3ccc(c(Cl)c3)Oc3cc2cc(c3O[C@@H]2O[C@H](CO)[C@@H](O)[C@H](O)[C@H]2O[C@H]2C[C@](C)(N)[C@H](O)[C@H](C)O2)Oc2ccc(cc2Cl)[C@H]1O [VAN, vancomycin]
MBC/MIC ratio range (C. difficile): 1-4 | MBC (C. difficile; BAA1805): 2 µg/mL (≈ 1.38 µM) | MIC (Fusobacterium): > 32 µg/mL | MIC (Fusobacterium; Fusobacterium): > 32 µg/mL | survival by day 14 (CD; drug alone at the same dosage as in the combination (VAN 5 mg/kg twice a day)): 0% | MIC (CD strain VPI 1063; VPI1063, 2 h, read-out: MIC in Centrifuged BHI control): 0.5 µg/mL | MIC (CD strain VPI 1063; VPI1063, 2 h, read-out: MIC in Fecal extracts): 1 µg/mL | MIC (CD strain VPI 1063; VPI1063, read-out: MIC in BHI control): 0.5 µg/mL | increase in MIC after incubation in feces (CD strain VPI 1063; Table 21): 2 fold
